Source: US8530487B1 (priority 2009, dated 2013)

Target: human TRPA1 (Homo sapiens, UniProt O75762)
Experiment: cell-based
Settings: not given

Sequence of human TRPA1 (O75762 whole entry): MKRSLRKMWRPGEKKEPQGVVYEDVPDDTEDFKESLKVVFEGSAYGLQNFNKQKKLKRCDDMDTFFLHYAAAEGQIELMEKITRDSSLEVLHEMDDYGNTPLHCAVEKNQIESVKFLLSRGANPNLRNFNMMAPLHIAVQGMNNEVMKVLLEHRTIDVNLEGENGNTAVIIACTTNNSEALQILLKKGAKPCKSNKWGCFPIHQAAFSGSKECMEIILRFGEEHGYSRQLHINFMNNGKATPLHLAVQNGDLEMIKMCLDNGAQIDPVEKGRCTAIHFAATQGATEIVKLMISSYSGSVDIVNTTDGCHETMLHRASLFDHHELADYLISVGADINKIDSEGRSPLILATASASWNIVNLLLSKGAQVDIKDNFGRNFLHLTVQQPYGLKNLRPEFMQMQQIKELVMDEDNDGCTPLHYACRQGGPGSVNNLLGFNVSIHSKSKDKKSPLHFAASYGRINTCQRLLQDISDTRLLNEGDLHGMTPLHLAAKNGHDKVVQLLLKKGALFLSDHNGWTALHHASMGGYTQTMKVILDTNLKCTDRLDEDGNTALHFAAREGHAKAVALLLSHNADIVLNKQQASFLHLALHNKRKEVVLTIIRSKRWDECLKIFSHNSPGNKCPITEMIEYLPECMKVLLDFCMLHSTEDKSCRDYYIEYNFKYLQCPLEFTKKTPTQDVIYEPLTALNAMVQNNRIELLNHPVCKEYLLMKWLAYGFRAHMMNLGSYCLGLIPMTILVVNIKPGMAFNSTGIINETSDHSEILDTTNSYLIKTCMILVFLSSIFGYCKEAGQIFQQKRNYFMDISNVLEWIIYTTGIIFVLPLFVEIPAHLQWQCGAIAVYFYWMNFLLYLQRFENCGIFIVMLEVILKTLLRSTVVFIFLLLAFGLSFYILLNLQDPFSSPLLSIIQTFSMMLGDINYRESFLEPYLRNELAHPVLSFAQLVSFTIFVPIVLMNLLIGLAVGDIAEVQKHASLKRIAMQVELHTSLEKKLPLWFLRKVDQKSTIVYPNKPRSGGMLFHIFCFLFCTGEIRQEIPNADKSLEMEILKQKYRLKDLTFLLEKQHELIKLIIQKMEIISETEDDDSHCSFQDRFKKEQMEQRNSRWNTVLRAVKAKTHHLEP

Compound	IC50 [nM]
COc1ccccc1C1NC(=S)NC2=C1C(=O)c1ccccc12 (stereo not shown) [Compound 40]	> 1000
O=C1C2=C(NC(=S)NC2c2ccccc2)c2ccc(O)cc21 (stereo not shown) [Compound 203]	> 1000

Same assay, conditions: read-out: Activity (IC50)

Compound	IC50 [nM]
C=CCOc1cccc(C2NC(=O)N(Cc3ccncc3)C3=C2C(=O)c2ccccc23)c1 (stereo not shown) [Compound 635]	> 1000
CN1C(=O)NC(c2cccc(C#N)c2)C2=C1c1ccccc1C2=O (stereo not shown) [Compound 644]	> 1000
O=C1NC2=C(C(=O)c3ccccc32)C(c2ccccc2F)N1 (stereo not shown) [Compound 447]	> 1000
CCOc1cccc(C2NC(=O)N(Cc3cccnc3)C3=C2C(=O)c2ccccc23)c1 (stereo not shown) [Compound 612]	100 to 500
C=CCOc1cccc(C2NC(=O)NC3=C2C(=O)c2ccccc23)c1C (stereo not shown) [Compound 421]	100 to 500
O=C1NC2=C(C(=O)c3ccccc32)C(c2ccc(Cl)cc2)N1 (stereo not shown) [Compound 442]	> 1000
CCOc1cccc(C2NC(=O)N(CC#N)C3=C2C(=O)c2ccccc23)c1 (stereo not shown) [Compound 601]	< 100
C=CCOc1ccc(Cl)c(C2NC(=O)N(C)C3=C2C(=O)c2ccccc23)c1 (stereo not shown) [Compound 638]	< 100
CCCSc1cccc(C2NC(=O)NC3=C2C(=O)c2cccnc23)c1 (stereo not shown) [Compound 906]	100 to 500
O=C1NC2=C(C(=O)c3ccccc32)C(c2c(Cl)cccc2Cl)N1 (stereo not shown) [Compound 449]	> 1000
CN1C(=S)NC2=C(C(=O)c3ccccc32)C1c1cccc(C#N)c1 (stereo not shown) [Compound 309]	> 1000
CN1C(=S)N(C)C(c2ccccc2)C2=C1c1ccccc1C2=O (stereo not shown) [Compound 304]	> 1000
CCCN1C(=O)NC(c2cccc(OC)c2)C2=C1c1ccccc1C2=O (stereo not shown) [Compound 624]	> 1000
CN1C(=NC#N)NC2=C(C(=O)c3c(Cl)cccc32)C1c1cccc(OCC2CC2)c1 (stereo not shown) [Compound 953]	> 1000
Cc1ccc2c(c1)C(=O)C1=C2NC(=O)NC1c1cc(O)ccc1Br (stereo not shown) [Compound 107]	500 to 1000
O=C1NC2=C(C(=O)c3ccccc32)C(c2cccnc2)N1 (stereo not shown) [Compound 501]	> 1000
CCOc1cccc(C2NC(=O)N(Cc3ccc(F)cc3)C3=C2C(=O)c2ccccc23)c1 (stereo not shown) [Compound 607]	100 to 500
N#CN=C1NC2=C(C(=O)c3ccccc32)C(c2cccc(OCC3CC3)c2)N1 (stereo not shown) [Compound 951]	> 1000
CCOc1cccc(C2NC(=O)NC3=C2C(=O)c2ccccc23)c1 (stereo not shown) [Compound 602]	100 to 500
C=CCOc1cccc(C2NC(=O)NC3=C2C(=O)c2ccccc23)c1O (stereo not shown) [Compound 456]	> 1000
CCOc1cccc(C2NC(=O)NC3=C2C(=O)c2ccccc23)c1 (stereo not shown) [Compound 412]	100 to 500
COc1ccc(Br)c(C2NC(=O)NC3=C2C(=O)c2ccccc23)c1 (stereo not shown) [Compound 433]	> 1000
CN1C(=S)NC(c2ccccc2)C2=C1c1cccc(O)c1C2=O (stereo not shown) [Compound 313]	> 1000

Compound	IC50 [nM]
O=C1NC2=C(C(=O)c3ccccc32)C(c2cccc(OCC(F)(F)F)c2)N1 (stereo not shown) [Compound 413]	100 to 500
C=CCOc1cccc(C2NC(=O)N(Cc3cccnc3)C3=C2C(=O)c2ccccc23)c1 (stereo not shown) [Compound 634]	< 100
CCOc1cccc(C2NC(=O)NC3=C2C(=O)c2ccccc23)c1Cl (stereo not shown) [Compound 423]	500 to 1000
C=CCOc1cccc(C2NC(=S)N(C)C3=C2C(=O)c2ccccc23)c1 (stereo not shown) [Compound 306]	< 100
CCOc1cccc(C2NC(=O)NC3=C2C(=O)c2ccccc23)c1F (stereo not shown) [Compound 616]	< 100
O=C1NC2=C(C(=O)c3ccccc32)C(c2cccc(OCC3CC3)c2Cl)N1 (stereo not shown) [Compound 419]	100 to 500
CCOc1cccc(C2NC(=O)N(Cc3ccccc3)C3=C2C(=O)c2ccccc23)c1 (stereo not shown) [Compound 606]	< 100
CCOc1cccc(C2NC(=O)N(CC#N)C3=C2C(=O)c2ccccc23)c1F (stereo not shown) [Compound 617]	< 100
C=CCOc1cccc(C2NC(=O)NC3=C2C(=O)c2ccccc23)c1C(F)(F)F (stereo not shown) [Compound 454]	> 1000
CCOc1cccc(C2NC(=O)N(CC(=O)O)C3=C2C(=O)c2ccccc23)c1 (stereo not shown) [Compound 610]	> 1000
CCCC(F)c1cccc(C2NC(=O)NC3=C2C(=O)c2cccnc23)c1 (stereo not shown) [Compound 907]	< 100
CCOc1cccc(C2NC(=O)N(CC(F)(F)F)C3=C2C(=O)c2ccccc23)c1 (stereo not shown) [Compound 605]	500 to 1000
C=CCOc1cccc(C2NC(=NC#N)NC3=C2C(=O)c2ccccc23)c1 (stereo not shown) [Compound 950]	> 1000
N#Cc1cccc(C2NC(=O)NC3=C2C(=O)c2ccccc23)c1 (stereo not shown) [Compound 430]	> 1000
CCOc1cccc(C2NC(=O)N(Cc3ccccn3)C3=C2C(=O)c2ccccc23)c1 (stereo not shown) [Compound 611]	> 1000
CCOc1cccc(C2NC(=O)NC3=C2C(=O)c2ccccc23)n1 (stereo not shown) [Compound 504]	500 to 1000
O=C1NC2=C(C(=O)c3c(Cl)cccc32)C(c2cc(O)ccc2Br)N1 (stereo not shown) [Compound 101]	< 100
C=CCOc1cccc(C2NC(=O)N(C)C3=C2C(=O)c2ccccc23)c1 (stereo not shown) [Compound 629]	< 100
CCOc1cccc(C2NC(=S)N(C)C3=C2C(=O)c2ccccc23)c1 (stereo not shown) [Compound 311]	< 100
C=CCOc1cc(F)cc(C2NC(=O)NC3=C2C(=O)c2ccccc23)c1 (stereo not shown) [Compound 403]	< 100
O=C1NC2=C(C(=O)c3ccccc32)C(c2cccc(C(F)(F)F)c2)N1 (stereo not shown) [Compound 452]	> 1000
C=CCOc1cccc(C2NC(=NC#N)N(Cc3ccccc3)C3=C2C(=O)c2ccccc23)c1 (stereo not shown) [Compound 961]	> 1000
CCOc1cccc(C2NC(=S)NC3=C2C(=O)c2ccccc23)c1 (stereo not shown) [Compound 310]	< 100

Compound	IC50 [nM]
O=C1NC2=C(C(=O)c3ccccc32)C(c2cccc3[nH]c(=O)oc23)N1 (stereo not shown) [Compound 505]	> 1000
CCCOc1cccc(C2NC(=O)N(C)C3=C2C(=O)c2ccccc23)c1 (stereo not shown) [Compound 645]	< 100
O=C1NC2=C(C(=O)c3ccccc32)C(c2cccc(Cl)c2)N1 (stereo not shown) [Compound 431]	> 1000
CCOc1cccc(C2NC(=O)N(C)C3=C2C(=O)c2ccccc23)c1 (stereo not shown) [Compound 603]	< 100
CN(C)c1cccc(C2NC(=O)NC3=C2C(=O)c2ccccc23)c1 (stereo not shown) [Compound 445]	> 1000
CCn1c(=O)oc2c(C3NC(=O)NC4=C3C(=O)c3ccccc34)cccc21 (stereo not shown) [Compound 506]	> 1000
CCCOc1cccc(C2NC(=O)N(Cc3ccccc3)C3=C2C(=O)c2ccccc23)c1 (stereo not shown) [Compound 647]	< 100
CCOc1cccc(C2NC(=O)NC3=C2C(=O)c2cccnc23)c1F (stereo not shown) [Compound 901]	100 to 500
N#CN=C1NC2=C(C(=O)c3c(Cl)cccc32)C(c2cccc(OCC3CC3)c2)N1 (stereo not shown) [Compound 954]	> 1000
C=CCOc1cccc(C2NC(=O)NC3=C2C(=O)c2ccccc23)c1Cl (stereo not shown) [Compound 411]	< 100
O=C1NC2=C(C(=O)c3ccccc32)C(c2cc(C(F)(F)F)ccc2Cl)N1 (stereo not shown) [Compound 448]	> 1000
CCOc1cncc(C2NC(=O)NC3=C2C(=O)c2ccccc23)c1 (stereo not shown) [Compound 503]	> 1000
Nc1cccc(C2NC(=O)NC3=C2C(=O)c2ccccc23)c1 (stereo not shown) [Compound 444]	> 1000
CC(C)Oc1cccc(C2NC(=O)NC3=C2C(=O)c2ccccc23)c1 (stereo not shown) [Compound 437]	> 1000
C=CCN1C(=O)NC(c2cccc(OCC)c2)C2=C1c1ccccc1C2=O (stereo not shown) [Compound 614]	100 to 500
C=CCOc1cccc(C2NC(=O)N(C)C3=C2C(=O)c2ccccc23)c1Cl (stereo not shown) [Compound 639]	< 100
COc1ccc(OC)c(C2NC(=O)NC3=C2C(=O)c2ccccc23)c1 (stereo not shown) [Compound 441]	> 1000
C=CCOc1cccc(C2NC(=S)NC3=C2C(=O)c2ccccc23)c1 (stereo not shown) [Compound 305]	< 100
O=C1NC2=C(C(=O)c3ccccc32)C(c2cccc(OC(=O)C3CC3)c2)N1 (stereo not shown) [Compound 459]	> 1000
C=CCOc1cccc(C2NC(=O)N(Cc3ccccc3)C3=C2C(=O)c2ccccc23)c1 (stereo not shown) [Compound 632]	< 100
C=CCOc1ccc(Cl)c(C2NC(=O)NC3=C2C(=O)c2ccccc23)c1 (stereo not shown) [Compound 415]	100 to 500
C=CCOc1cccc(C2NC(=O)N(CC)C3=C2C(=O)c2ccccc23)c1 (stereo not shown) [Compound 630]	< 100
